Results: PubChem BioAssay (NCI)
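How tested: cells in 96-well plates exposed to compound for 48 hours at five concentrations. GI50 marks 50% less growth. TGI: total growth inhibition.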

Tests used:
Assay in all cases: inhibition of tumour cell growth, NCI panel, 48 h; in the data active = GI50 below about 0.43 µM; inactive = the rest
SF-295 CNS = system: SF-295 CNS
SN12C renal = system: SN12C renal
RPMI-8226 leukemia = system: RPMI-8226 leukemia
HT29 colon = system: HT29 colon
IGROV1 ovarian = system: IGROV1 ovarian
K-562 leukemia = system: K-562 leukemia
OVCAR-5 ovarian = system: OVCAR-5 ovarian
A498 renal = system: A498 renal
LOX IMVI melanoma = system: LOX IMVI melanoma
TK-10 renal = system: TK-10 renal

COc1ccc(/C=C2/C[N+](C)(C)C/C(=C/c3ccc(OC)cc3)C2=O)cc1
> 100 µM: TGI (SF-295 CNS) | TGI (SN12C renal) | TGI (HT29 colon) | TGI (K-562 leukemia) | TGI (OVCAR-5 ovarian) | TGI (A498 renal) | TGI (LOX IMVI melanoma) | TGI (TK-10 renal)
64.7 µM: TGI (IGROV1 ovarian)
31.1 µM: TGI (RPMI-8226 leukemia)

COC(=O)C(Nc1ccc(OC)cc1)c1ccccc1 (stereo not given)
> 100 µM: TGI (SF-295 CNS) | TGI (SN12C renal) | TGI (RPMI-8226 leukemia) | TGI (HT29 colon) | TGI (IGROV1 ovarian) | TGI (K-562 leukemia) | TGI (OVCAR-5 ovarian) | TGI (LOX IMVI melanoma) | TGI (TK-10 renal)

Cn1c(=O)c2[nH]c(CS(=O)(=O)Cc3nc4c([nH]3)c(=O)n(C)c(=O)n4C)nc2n(C)c1=O
> 100 µM: TGI (SF-295 CNS) | TGI (SN12C renal) | TGI (RPMI-8226 leukemia) | TGI (HT29 colon) | TGI (IGROV1 ovarian) | TGI (K-562 leukemia) | TGI (OVCAR-5 ovarian) | TGI (A498 renal) | TGI (LOX IMVI melanoma) | TGI (TK-10 renal)

CC1(C)N=C(N)N=C(N)N1c1cc(Cl)ccc1Cl
inactive: GI50 (SF-295 CNS) > 100 µM | GI50 (SN12C renal) > 100 µM | GI50 (RPMI-8226 leukemia) > 100 µM | GI50 (HT29 colon) 62.5 µM | GI50 (IGROV1 ovarian) 27.6 µM | GI50 (K-562 leukemia) 55.3 µM | GI50 (OVCAR-5 ovarian) > 100 µM | GI50 (A498 renal) > 100 µM | GI50 (LOX IMVI melanoma) > 100 µM | GI50 (TK-10 renal) > 100 µM
> 100 µM: TGI (SF-295 CNS) | TGI (SN12C renal) | TGI (RPMI-8226 leukemia) | TGI (HT29 colon) | TGI (K-562 leukemia) | TGI (OVCAR-5 ovarian) | TGI (A498 renal) | TGI (LOX IMVI melanoma) | TGI (TK-10 renal)
88.6 µM: TGI (IGROV1 ovarian)

Cc1cc(C)nc(Nc2nc3ccc([N+](=O)[O-])cc3[nH]2)n1
> 100 µM: TGI (SF-295 CNS) | TGI (SN12C renal) | TGI (RPMI-8226 leukemia) | TGI (HT29 colon) | TGI (IGROV1 ovarian) | TGI (K-562 leukemia) | TGI (OVCAR-5 ovarian) | TGI (A498 renal) | TGI (LOX IMVI melanoma) | TGI (TK-10 renal)

COc1ccc2ccc([Se]c3ccc4ccc(OC)cc4c3)cc2c1
> 100 µM: TGI (SF-295 CNS) | TGI (SN12C renal) | TGI (RPMI-8226 leukemia) | TGI (HT29 colon) | TGI (IGROV1 ovarian) | TGI (K-562 leukemia) | TGI (A498 renal) | TGI (LOX IMVI melanoma) | TGI (TK-10 renal)

S=C(Nc1ccc(Cl)cc1)Nc1ccc(-c2nc3ccccc3[nH]2)cc1
11.7 µM: TGI (LOX IMVI melanoma)
4.24 µM: TGI (SF-295 CNS)
55.5 µM: TGI (A498 renal)
31.3 µM: TGI (K-562 leukemia)
inactive: GI50 (SF-295 CNS) 0.757 µM | GI50 (SN12C renal) 6.55 µM | GI50 (RPMI-8226 leukemia) 2.23 µM | GI50 (HT29 colon) 4.06 µM | GI50 (IGROV1 ovarian) 7.02 µM | GI50 (K-562 leukemia) 5.2 µM | GI50 (OVCAR-5 ovarian) 20.4 µM | GI50 (A498 renal) 23.6 µM | GI50 (LOX IMVI melanoma) 5.05 µM | GI50 (TK-10 renal) 7.73 µM
23.7 µM: TGI (SN12C renal) | TGI (IGROV1 ovarian)
40.8 µM: TGI (OVCAR-5 ovarian)
14.9 µM: TGI (HT29 colon)
36.1 µM: TGI (TK-10 renal)
> 21.2 µM: TGI (RPMI-8226 leukemia)

O=c1cc(-c2ccccc2)nc2n1CCN2Cc1ccccc1
34.2 µM: TGI (A498 renal)
95.7 µM: TGI (TK-10 renal)
53.2 µM: TGI (IGROV1 ovarian)
39.9 µM: TGI (RPMI-8226 leukemia)
90.3 µM: TGI (K-562 leukemia)
inactive: GI50 (SF-295 CNS) 21.1 µM | GI50 (SN12C renal) 32.2 µM | GI50 (RPMI-8226 leukemia) 15.6 µM | GI50 (HT29 colon) 58.1 µM | GI50 (IGROV1 ovarian) 21.2 µM | GI50 (K-562 leukemia) 34.7 µM | GI50 (A498 renal) 10.1 µM | GI50 (LOX IMVI melanoma) 29.8 µM | GI50 (TK-10 renal) 26.5 µM
> 100 µM: TGI (SN12C renal) | TGI (HT29 colon) | TGI (LOX IMVI melanoma)
72.2 µM: TGI (SF-295 CNS)

CC(=O)N1c2ccccc2Sc2cc(C(O)(C(F)(F)F)C(F)(F)F)ccc21
> 10 µM: TGI (SF-295 CNS) | TGI (SN12C renal) | TGI (HT29 colon) | TGI (IGROV1 ovarian) | TGI (K-562 leukemia) | TGI (OVCAR-5 ovarian) | TGI (A498 renal) | TGI (LOX IMVI melanoma) | TGI (TK-10 renal)
